Test results from US20220002728A1, “METHOD FOR PREVENTING OXIDATION OF POLYPHENOL BY MEANS OF APTAMER, MATERIAL THEREOF, AND USE THEREOF” (Nexmos Co., LTD, priority 2018, published 2022).

Test: WST-1 assay of EGCG oxidation delay by aptamer
Assay type: physicochemical
Conditions: for comparison of EGCG oxidation delay effect of aptamer K4 and aptamer K5: 20 μM aptamer, 500 μM EGCG, 30 minutes, WST-1 assay (FIG. 5); for concentration dependence of EGCG oxidation delay (reduction of WST-1 delayed): 5, 10 and 20 uM aptamer with EGCG, WST-1 assay (FIGS. 3 and 4); for oxidation of EGCG delayed: at 20 uM aptamer, 500 mM EGCG (so in the source), room temperature 30 minutes, WST-1, 440 nm absorbance measured for 16 hours (FIG. 3, FIG. 4)
Procedure: FIG. 1 is a graph showing the effect of delaying EGCG oxidation in aptamer K1 (SEQ ID NO: 1) to K9 (SEQ ID NO: 9) of the present invention. Nine types of aptamer K from aptamer K1 to aptamer K9 that bind to EGCG were prepared in the same manner as described above. After 20 μM aptamer K1 to K9 and 500 μM EGCG were reacted for 30 minutes, respectively, WST-1 assay was performed. The degree of delaying EGCG oxidation of each aptamer K was compared,
The aptamer (aptamers of SEQ ID NOs: 1 to 9) of the present invention reacting specifically with the EGCG obtained through the SELEX was dissolved in a folding buffer (1 mM MgCl2 in PBS) and then dissolved at 95° C.
After reacting 500 uM EGCG and one of the prepared 20 μM aptamers K1 to K9 and for 30 minutes, WST-1 assay was performed. The degree of EGCG oxidation delay of each aptamer K was compared.
500 mM EGCG and 5, 10, and 20 uM of the prepared aptamer K4 were reacted at room temperature for 30 minutes, respectively, and then WST-1 assay was performed. Prepared sample and WST-1([…]) was reacted to measure the formazan produced and with the plate reader, 440 nm absorbance was measured for 16 hours.
The aptamer K5 (aptamer of SEQ ID NO: 5) that specifically reacts with EGCG obtained through the SELEX was prepared in the same manner as described above and was tested for the effect of delaying EGCG oxidation.
Aptamers K4 and K5 binding to the EGCG were prepared in the same manner as described above. 20 μM aptamer K4, or aptamer K5, and 500 μM EGCG were reacted for 30 minutes, respectively, followed by WST-1 assay. It was confirmed that the EGCG oxidation delay effect of 20 μM aptamer K4 and aptamer K5 was similar (FIG. 5).

Substance	comparison of EGCG oxidation delay effect of aptamer K4 and aptamer K5	concentration dependence of EGCG oxidation delay (reduction of WST-1 delayed)	oxidation of EGCG delayed	concentration dependence of EGCG oxidation delay (reduction of WST-1 delayed) (listed as 1(5))
aptamer K4: DNA aptamer binding EGCG, 30 mer: CGACGACAGGAGGTGCGGCCCCGGCAGACC (DNA, backbone and methylation of C not given here)	similar	delayed (about 33% at 20 uM) depending on the concentration	about 33%	–
aptamer K5: DNA aptamer binding EGCG, 29 mer: ACGCATGCCGGGCGCGCTCCCTGTCGTCC (DNA, backbone and methylation of C not given here)	similar	delayed (about 33% at 20 uM) depending on the concentration	about 33%	delayed depending on the concentration
